{"source": "patent US20240197756A1", "about": "“METHODS OF TREATMENT WITH NEUROACTIVE STEROIDS” (priority 2021, published 2024)", "system": "harmaline-induced tremor", "assay": "rHIT model, coadministration of Compound 1 and Compound 2", "assay_type": "in vivo, rat", "protocol": "Rat Harmaline Induced Tremor (rHIT): The rHIT model was used to assess the impact of the combination of Compound 1 and Compound 2 on reducing the symptoms of tremor. Male SD rats (SLAC, Shanghai, China) weighing about 250 g at the time of testing were housed in a 12:12 light-dark cycle room throughout the study, with the lights on from 5 a.m. to 5 p.m, and fed ad libitum. […]\nThe rHIT methods described in Example 5 were used. […] After the 20-minute baseline recording, rats were dosed with harmaline and the post-harmaline effect was measured for 20 minutes. […]", "data": [{"smiles": "COC[C@@]1(O)CC[C@@]2(C)[C@@H](CC[C@@H]3[C@@H]2CC[C@]2(C)[C@@H](C(=O)Cn4ccnc4)CC[C@@H]32)C1", "note": "[Compound 1, 3α-Hydroxy-3β-methoxymethyl-21-(1′-imidazolyl)-5α-pregnan-20-one]", "values": [{"measurement": "effect of Compound 1 on the efficacy of Compound 2 in treating tremor", "setting": "Compound 1 3 mg/kg p.o.", "result": "does not inhibit"}, {"measurement": "effect of the addition of Compound 1 on the tremor-reducing effects of Compound 2", "setting": "Compound 1 3 mg/kg p.o. (FIG. 11)", "result": "did not appear to enhance"}]}]}
